Active and inactive are the calls of the source.
Columns and labels:
Exodeoxyribonuclease V = target: T1, Exodeoxyribonuclease V (Escherichia coli (strain K12), UniProt P04993+P07648+P08394); experiment: E. coli RecBCD inhibitors, dose response, counter-screen for AddAB inhibitor project, absorbance, V66 E. coli, mutant T4 phage (AID 492957); type: functional, cell-based, Escherichia coli str. K-12 substr. MG1655
T1 sequence (P04993 whole entry): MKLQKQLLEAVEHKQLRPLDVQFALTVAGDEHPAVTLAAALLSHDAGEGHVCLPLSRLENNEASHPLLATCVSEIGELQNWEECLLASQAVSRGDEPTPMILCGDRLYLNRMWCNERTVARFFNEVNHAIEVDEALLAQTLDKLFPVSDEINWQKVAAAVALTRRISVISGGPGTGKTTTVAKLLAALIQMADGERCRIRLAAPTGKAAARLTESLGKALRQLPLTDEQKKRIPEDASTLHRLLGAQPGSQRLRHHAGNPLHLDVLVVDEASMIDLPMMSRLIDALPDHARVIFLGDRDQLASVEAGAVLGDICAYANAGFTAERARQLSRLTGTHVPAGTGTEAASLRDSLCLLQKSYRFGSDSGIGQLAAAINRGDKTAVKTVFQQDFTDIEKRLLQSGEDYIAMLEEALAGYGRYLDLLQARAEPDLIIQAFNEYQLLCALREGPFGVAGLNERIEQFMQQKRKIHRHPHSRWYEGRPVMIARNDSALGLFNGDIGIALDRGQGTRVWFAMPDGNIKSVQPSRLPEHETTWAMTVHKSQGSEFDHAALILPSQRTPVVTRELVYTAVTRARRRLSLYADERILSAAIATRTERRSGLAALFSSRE
T1 sequence (P07648 whole entry): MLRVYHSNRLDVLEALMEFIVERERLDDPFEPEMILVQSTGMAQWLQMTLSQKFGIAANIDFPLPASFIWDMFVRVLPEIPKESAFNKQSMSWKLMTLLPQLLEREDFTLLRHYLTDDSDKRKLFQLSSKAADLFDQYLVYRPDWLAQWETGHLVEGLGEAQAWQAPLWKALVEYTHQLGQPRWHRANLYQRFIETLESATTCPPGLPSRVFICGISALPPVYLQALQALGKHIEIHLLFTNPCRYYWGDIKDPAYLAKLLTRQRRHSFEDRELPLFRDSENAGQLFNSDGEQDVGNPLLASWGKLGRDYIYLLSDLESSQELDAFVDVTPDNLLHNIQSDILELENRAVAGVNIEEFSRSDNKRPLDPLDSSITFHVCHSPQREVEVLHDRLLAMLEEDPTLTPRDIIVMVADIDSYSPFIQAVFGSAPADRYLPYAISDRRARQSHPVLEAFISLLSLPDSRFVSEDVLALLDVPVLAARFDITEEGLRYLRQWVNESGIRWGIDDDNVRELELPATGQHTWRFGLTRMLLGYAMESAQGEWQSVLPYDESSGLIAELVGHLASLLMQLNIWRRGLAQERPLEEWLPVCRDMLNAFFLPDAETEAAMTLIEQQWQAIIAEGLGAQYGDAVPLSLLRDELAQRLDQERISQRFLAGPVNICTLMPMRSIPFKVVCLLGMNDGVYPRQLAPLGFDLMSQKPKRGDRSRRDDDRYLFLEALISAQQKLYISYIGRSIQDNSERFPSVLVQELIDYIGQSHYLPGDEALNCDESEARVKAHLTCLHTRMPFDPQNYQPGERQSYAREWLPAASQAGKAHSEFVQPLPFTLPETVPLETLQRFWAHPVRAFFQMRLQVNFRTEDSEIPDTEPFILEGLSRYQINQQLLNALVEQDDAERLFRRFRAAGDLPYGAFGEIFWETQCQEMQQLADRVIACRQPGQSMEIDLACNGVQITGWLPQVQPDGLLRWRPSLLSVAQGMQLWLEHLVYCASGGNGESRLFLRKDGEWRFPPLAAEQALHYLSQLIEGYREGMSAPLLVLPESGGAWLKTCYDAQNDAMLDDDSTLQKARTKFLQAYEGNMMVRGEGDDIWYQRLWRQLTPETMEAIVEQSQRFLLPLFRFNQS
T1 sequence (P08394 whole entry): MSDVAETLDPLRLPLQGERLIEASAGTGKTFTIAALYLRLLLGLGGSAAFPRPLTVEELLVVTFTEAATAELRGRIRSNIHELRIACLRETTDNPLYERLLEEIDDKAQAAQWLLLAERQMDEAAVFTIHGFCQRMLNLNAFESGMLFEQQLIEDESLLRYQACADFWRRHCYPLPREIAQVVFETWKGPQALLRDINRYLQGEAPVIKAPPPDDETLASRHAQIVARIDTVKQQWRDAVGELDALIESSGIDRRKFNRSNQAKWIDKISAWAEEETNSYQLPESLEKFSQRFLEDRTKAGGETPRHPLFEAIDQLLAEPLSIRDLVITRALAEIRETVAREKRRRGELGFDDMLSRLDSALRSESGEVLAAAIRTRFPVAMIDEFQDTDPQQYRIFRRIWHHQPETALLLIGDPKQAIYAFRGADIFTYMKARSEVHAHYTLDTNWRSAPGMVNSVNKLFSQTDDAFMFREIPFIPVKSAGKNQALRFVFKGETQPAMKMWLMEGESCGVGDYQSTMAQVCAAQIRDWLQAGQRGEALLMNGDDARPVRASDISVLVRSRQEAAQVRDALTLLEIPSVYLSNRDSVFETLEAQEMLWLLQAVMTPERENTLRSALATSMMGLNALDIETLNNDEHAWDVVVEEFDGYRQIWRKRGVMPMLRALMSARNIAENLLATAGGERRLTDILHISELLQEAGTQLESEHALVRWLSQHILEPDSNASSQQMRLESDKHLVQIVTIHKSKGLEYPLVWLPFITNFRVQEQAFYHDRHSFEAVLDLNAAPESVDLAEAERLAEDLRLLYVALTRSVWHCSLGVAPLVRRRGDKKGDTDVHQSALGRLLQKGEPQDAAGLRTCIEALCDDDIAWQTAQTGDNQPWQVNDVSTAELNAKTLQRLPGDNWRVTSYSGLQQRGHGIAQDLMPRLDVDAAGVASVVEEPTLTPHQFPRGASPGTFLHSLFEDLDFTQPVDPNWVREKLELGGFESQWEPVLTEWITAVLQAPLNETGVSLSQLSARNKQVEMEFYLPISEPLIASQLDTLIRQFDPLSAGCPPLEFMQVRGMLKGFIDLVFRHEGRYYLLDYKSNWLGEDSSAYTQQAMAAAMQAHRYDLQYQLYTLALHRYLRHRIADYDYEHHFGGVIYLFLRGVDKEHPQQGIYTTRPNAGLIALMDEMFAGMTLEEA

[1] = NIH-3T3 fibroblast cytotoxicity, dose response, cytotoxicity control, cell-based, fluorescence, Alamar Blue, secondary assay (AID 2327); type: functional;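 also: NIH-3T3 mouse fibroblasts cultured with fluconazole at 8 µg/mL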
[2] = Counterscreen for AddAB inhibitors: absorbance-based bacterial cell-based high throughput dose response assay for inhibitors of bacterial viability. [Related pubchem assays (depositor defined):AID435030, AID449728, AID449731, AID488942, AID488955, AID488956]; type: functional
[3] = Luminescence Cell-Based Dose Retest to Confirm Inhibitors of Cancer Stem Cells. [Related pubchem assays (depositor defined):AID2717, AID2721]; type: functional; conditions: Homo sapiens
[4] = C. albicans growth with fluconazole, confirmation, fluorescence, retest (AID 2467); type: functional, cell-based
[5] = target: T2, Mannose-6-phosphate isomerase (Homo sapiens, UniProt P34949); experiment: PMI enzyme inhibitors, confirmation, biochemical, fluorescence intensity (AID 1535)
T2 sequence (P34949 whole entry): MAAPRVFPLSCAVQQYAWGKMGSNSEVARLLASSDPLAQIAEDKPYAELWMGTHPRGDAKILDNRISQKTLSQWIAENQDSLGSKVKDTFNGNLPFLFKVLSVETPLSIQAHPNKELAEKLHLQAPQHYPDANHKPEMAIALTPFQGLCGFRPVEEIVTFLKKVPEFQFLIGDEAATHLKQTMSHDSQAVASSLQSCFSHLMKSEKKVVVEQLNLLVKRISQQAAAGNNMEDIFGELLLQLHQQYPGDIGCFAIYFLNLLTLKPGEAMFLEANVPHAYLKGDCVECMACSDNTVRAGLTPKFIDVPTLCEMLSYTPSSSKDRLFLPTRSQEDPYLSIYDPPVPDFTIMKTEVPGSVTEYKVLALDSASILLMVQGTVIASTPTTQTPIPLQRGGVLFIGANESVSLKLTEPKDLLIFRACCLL

Phosphomannomutase 2 = target: T3, Phosphomannomutase 2 (Homo sapiens, UniProt O15305); experiment: Counter screen SAR assay for PMM2 inhibitors via a fluorescence intensity assay. [Related pubchem assays (depositor defined):AID1545, AID1574]
T3 sequence (O15305 whole entry): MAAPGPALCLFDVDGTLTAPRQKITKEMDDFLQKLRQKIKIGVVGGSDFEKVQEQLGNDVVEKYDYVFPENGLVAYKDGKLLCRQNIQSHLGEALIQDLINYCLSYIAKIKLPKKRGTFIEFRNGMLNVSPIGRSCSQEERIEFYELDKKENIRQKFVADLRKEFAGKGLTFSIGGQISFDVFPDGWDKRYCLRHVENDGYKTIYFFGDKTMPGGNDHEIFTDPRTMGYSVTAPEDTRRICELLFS

[6] = target: T4, RNA-binding protein pos-1 (Caenorhabditis elegans, UniProt G5EF15); experiment: inhibitors of POS-1/mex-3 RNA binding, dose response, biochemical, fluorescence polarization (AID 1964);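 also: purified POS-1 fused to maltose binding protein made in E. coli; potency of compounds blocking POS-1 binding to fluorescent RNA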
T4 sequence (G5EF15 whole entry): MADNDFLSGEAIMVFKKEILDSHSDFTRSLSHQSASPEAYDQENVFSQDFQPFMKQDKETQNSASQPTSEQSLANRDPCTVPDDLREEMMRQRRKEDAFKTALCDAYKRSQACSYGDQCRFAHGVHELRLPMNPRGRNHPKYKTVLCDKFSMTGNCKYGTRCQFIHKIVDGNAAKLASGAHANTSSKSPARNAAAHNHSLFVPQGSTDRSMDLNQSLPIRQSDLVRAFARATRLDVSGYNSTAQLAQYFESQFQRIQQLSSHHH

[7] = target: Intestinal-type alkaline phosphatase (Mus musculus, UniProt P24822); experiment: PubChem AID 488874; type: functional
Chain of Intestinal-type alkaline phosphatase (Mus musculus, UniProt P24822) (P24822 whole entry): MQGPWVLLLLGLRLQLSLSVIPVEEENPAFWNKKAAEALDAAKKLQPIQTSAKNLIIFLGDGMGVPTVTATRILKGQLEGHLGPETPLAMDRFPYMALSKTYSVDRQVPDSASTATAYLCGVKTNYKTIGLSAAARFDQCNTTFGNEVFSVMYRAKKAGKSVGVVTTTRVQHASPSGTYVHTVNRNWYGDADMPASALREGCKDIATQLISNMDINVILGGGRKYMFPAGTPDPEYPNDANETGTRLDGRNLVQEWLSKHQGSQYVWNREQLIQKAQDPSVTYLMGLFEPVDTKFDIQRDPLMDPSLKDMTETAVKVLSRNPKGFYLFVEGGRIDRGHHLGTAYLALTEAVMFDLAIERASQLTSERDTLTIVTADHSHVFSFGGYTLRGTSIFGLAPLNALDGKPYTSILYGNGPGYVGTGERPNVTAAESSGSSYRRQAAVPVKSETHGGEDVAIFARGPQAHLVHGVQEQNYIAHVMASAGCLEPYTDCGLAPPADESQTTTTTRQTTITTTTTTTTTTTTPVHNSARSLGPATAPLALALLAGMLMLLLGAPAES

[8] = target: T5, Intestinal-type alkaline phosphatase (Homo sapiens, UniProt P09923); experiment: human IAP activators, dose response, biochemical, luminescent, uHTS hits, set 2 (AID 488817); type: functional;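 also: potency of activators that raise enzyme activity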
T5 sequence (P09923 whole entry): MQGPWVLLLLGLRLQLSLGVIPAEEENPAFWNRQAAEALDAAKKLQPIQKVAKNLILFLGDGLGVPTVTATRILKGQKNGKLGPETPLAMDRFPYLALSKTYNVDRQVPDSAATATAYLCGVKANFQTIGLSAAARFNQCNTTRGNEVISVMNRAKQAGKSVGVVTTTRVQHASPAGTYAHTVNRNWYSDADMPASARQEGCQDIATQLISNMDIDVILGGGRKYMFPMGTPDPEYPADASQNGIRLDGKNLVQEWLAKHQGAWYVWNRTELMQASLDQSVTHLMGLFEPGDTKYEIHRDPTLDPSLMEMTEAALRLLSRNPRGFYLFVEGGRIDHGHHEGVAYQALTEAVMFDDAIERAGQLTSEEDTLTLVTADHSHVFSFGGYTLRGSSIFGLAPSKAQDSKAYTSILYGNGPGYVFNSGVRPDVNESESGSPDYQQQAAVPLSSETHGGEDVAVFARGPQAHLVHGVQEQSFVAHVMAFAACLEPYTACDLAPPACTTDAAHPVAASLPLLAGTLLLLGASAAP

[9] = target: T6, Zinc finger protein mex-5 (Caenorhabditis elegans, UniProt Q9XUB2); experiment: MEX-5/TCR-2 RNA interaction inhibitors, dose response, biochemical, C. elegans, fluorescence polarization (AID 1960)
T6 sequence (Q9XUB2 whole entry): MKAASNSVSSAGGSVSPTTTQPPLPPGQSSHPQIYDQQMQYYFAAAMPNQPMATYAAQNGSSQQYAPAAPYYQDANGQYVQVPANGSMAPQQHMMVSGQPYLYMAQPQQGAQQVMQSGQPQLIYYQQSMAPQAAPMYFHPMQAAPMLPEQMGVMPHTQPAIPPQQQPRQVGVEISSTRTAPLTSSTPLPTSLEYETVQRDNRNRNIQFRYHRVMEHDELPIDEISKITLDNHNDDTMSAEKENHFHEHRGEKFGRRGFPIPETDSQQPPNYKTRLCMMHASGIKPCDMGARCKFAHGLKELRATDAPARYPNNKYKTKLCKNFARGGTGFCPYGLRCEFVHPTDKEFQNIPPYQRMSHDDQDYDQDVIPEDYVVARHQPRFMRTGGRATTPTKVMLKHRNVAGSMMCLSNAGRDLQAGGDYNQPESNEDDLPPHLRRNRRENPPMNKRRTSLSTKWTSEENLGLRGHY

[10] = target: T7, Alkaline phosphatase, tissue-nonspecific isozyme (Homo sapiens, UniProt P05186); experiment: TNAP enzyme activators, dose response, selectivity assay for human IAP activator project, biochemical, TNAP isozyme, human IAP uHTS hits (AID 488886); type: functional;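 also: potency of compounds raising TNAP activity as a selectivity check on IAP activators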
T7 sequence (P05186 whole entry): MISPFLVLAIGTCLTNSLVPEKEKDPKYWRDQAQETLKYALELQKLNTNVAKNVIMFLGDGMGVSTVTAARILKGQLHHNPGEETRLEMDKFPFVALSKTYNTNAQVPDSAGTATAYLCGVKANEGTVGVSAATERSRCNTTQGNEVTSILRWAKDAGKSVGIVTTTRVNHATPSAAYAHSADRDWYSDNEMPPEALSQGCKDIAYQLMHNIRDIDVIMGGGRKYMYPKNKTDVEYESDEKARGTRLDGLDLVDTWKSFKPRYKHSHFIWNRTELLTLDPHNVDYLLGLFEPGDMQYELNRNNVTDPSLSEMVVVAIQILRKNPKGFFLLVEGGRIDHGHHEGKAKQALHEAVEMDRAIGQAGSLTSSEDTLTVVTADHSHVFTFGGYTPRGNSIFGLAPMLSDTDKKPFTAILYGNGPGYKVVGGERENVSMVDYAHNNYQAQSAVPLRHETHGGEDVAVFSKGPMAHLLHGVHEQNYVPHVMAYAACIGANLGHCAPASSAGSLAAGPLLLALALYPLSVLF

[11] = target: T5, Intestinal-type alkaline phosphatase; experiment: human intestinal alkaline phosphatase activators, dose response, biochemical, luminescence, uHTS hits (AID 463120); type: functional
Albumin = Albumin (Bos taurus, UniProt P02769); experiment: Counterscreen for inhibitors of T-cell receptor (TCR)-CD3 interaction: Fluorescence-based biochemical high throughput dose response assay to identify inhibitors of T-cell receptor (TCR)-CD3 interaction using a TAMRA-labeled BSA probe.; type: functional
Chain of Albumin (P02769 whole entry): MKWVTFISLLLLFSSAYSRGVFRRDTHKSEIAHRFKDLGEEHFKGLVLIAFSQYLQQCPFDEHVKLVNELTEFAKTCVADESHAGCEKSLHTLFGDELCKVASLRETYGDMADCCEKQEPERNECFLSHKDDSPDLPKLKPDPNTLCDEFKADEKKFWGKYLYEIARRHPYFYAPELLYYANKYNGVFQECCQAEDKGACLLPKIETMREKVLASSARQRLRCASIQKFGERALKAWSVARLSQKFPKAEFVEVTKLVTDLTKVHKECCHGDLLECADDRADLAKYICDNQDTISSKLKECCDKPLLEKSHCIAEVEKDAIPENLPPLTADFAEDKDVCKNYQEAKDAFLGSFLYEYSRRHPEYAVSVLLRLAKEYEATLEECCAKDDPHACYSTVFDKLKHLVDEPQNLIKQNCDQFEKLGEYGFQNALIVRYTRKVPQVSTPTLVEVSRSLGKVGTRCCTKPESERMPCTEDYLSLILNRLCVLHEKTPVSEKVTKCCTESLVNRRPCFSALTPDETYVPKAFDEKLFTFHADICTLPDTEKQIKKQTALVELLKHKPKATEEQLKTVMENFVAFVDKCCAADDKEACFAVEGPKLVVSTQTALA
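For AC50 in this document: cells exposed to compound for roughly 70 hours or longer before luminescence read.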

Row | SMILES | IC50 (Exodeoxyribonuclease V) | IC50 [2] | IC50 [5] | IC50 [7] | EC50 [8] | EC50 [10] | EC50 [11] | other results
1 | O=C1c2ccccc2NC(c2ccc(-c3cccc(Cl)c3)o2)N1O (stereo unspecified) | > 119 µM (inactive) | > 119 µM (inactive) |  |  |  |  |  | EC50 [1]: 33.4 µM (active); AC50 [3]: 4.45 µM (active); EC50 [4]: 1.91 µM (active)
2 | CCNc1c([N+](=O)[O-])c(=O)oc2ccccc12 | > 119 µM (inactive) | > 119 µM (inactive) |  |  |  |  |  | 
3 | Clc1nss/c1=N\c1ccccn1 |  |  | > 100 µM (inactive) |  |  |  |  | 
4 | Cc1ccc(/N=c2\ssnc2Cl)cc1C |  |  | 26.1 µM (active) |  |  |  |  | IC50 (Phosphomannomutase 2): 95.4 µM (active)
5 | Cc1nc2c3ccccc3nc(NNC(=O)CCC(=O)N3CCCC(C)C3)n2n1 (stereo unspecified) |  |  |  | 64.2 µM (active) | 10.7 µM (active) | 12.2 µM (active) | 8.07 µM (active) | EC50 [6]: > 300 µM (not active); EC50 [9]: 21 µM (active)
6 | O=Nc1nc(O)c(/C=C(\O)c2ccccc2)nc1NO |  |  |  | 35.5 µM (active) | 8.77 µM (active) | > 100 µM (inactive) | 8.21 µM (active) | IC50 (Albumin): > 94.2 µM (inactive)
